What is called mortality is the share of the test organisms that died.

The values below come from publication PMC12693026, “Green Contributions to the Chemistry of Perezone and Oxidation of the Double Bond of the Side Chain: A Theoretical Study and Cytotoxic Evaluation in MDA-MB231 Cells” (Molecules, 2025).

Series [1] relates to MDA-MB-231 breast cancer cells. Description: MTT cytotoxicity assay on MDA-MB-231 breast cancer cells. Type of series: cell-based. As to conditions: mean ± S.D. of three values. How it is done:
(§1) This test was performed using the MDA-MB231 breast cancer cell line (ATCC® CRM-HBT-26), as described by Mosmann. The cells were incubated at different concentrations of the compounds of interest. To generate the cell viability curves of all synthesized compounds, cells were seeded in 96-well culture plates at a density of 5000 cells/well and cultured in DMEM supplemented with 10% FBS. Cell viability was measured using MTT reagent dissolved in PBS (0.5 mg/mL). On the day of measurement, the medium was carefully replaced with fresh DMEM and 10% SFB containing diluted MTT (1:10, 10% MTT), and the sample was incubated for 1 h at 37 °C in a CO2 incubator to allow for the transformation of MTT dye into Formazan salt. After removing the incubation medium, the Formazan crystals were dissolved in 100 µL of DMSO solution. It is also important to note that the reduction in MTT was quantified by measuring absorbance at 570 nm using the Benchmark Plus absorbance microplate reader (Bio-Rad). The MTT test was repeated nine times. The proliferation percentage (% viability) was calculated according to the following:% Viability = (B/A) × 100 where A is the absorbance value of the control group and B is the absorbance value of the cells treated with the compounds of interest.
IC50 was extrapolated from the dose–response plot, obtained by plotting viability versus concentration. The concentration of the drug that reduced the viability of the cells by 50% (IC50) was determined by plotting the data points in triplicate over a concentration range and calculating the values using regression analysis.
In general terms: Tetrazolium dyes change colour on reduction, which living cells bring about.

A short description of series [2]: MTT mortality on normal fibroblasts (control). Type of series: cell-based. The note with it: human, primary dermal fibroblast normal cells, data from IC50 (µM). How it is done:
[The source words this procedure for another cell line and says it was used here with some conditions changed.] as §1

The nature of series [3]: Solubility observed in the cytotoxic testing. Type of series: physicochemical. The note with it: observation during MTT testing.
The test system of a further series is caspase-3. The note with it: cited from earlier work.
Where [4] appears, read: Homo sapiens, MDA-MB-231, MDA-MB-231, MTT assay, read-out: IC50.
Where [5] appears, read: Homo sapiens, MDA-MB-231, MDA-MB-231, MTT assay, read-out: IC50 (μg/mL).

Structures are written as SMILES. Like-named read-outs stand apart in the source and are kept apart here.

As to `CC1=C(O)C(=O)C(C(C)CCC(O)C(C)(C)O)=CC1=O` (centres unmarked) [Compound 10], the IC50 in series [1] (setting [4]) was 140 ± 6.13 µM; in series [1] (setting [5]) it was 39.4 ± 1.73 µg/mL. In addition, the mortality at 24 h in series [2] was 68.7 ± 1.08%.
On the same counts, the results for `CC1=CC(=O)C(C(C)CCC(O)C(C)(C)O)=C(O)C1=O` (centres unmarked) [Compound 9] are 101 ± 19.2 µM, 28.4 ± 5.4 µg/mL and 46.4 ± 1.08%.
As for `CC(=O)OC(C)(C)C(O)CCC(C)C1=CC(=O)C(C)=C(O)C1=O` (centres unmarked) [Compound 8], the IC50 in series [1] (setting [5]) was 33 µg/mL. Moreover, the “solubility in the cytotoxic/IC50 testing (in words)” value in series [3] is “poor solubility”.
As to `O=C[C@H](O)[C@@H](O)[C@@H](O)[C@H](O)C(=O)O` [D-galacturonic acid], the “binding energy with caspase-3” value in the series on caspase-3 (assessed for diabetes mellitus) is -4.03 kcal/mol.
Take `CC1=C(O)C(=O)C(C(C)CCC2OC2(C)C)=CC1=O` (centres unmarked) [Compound 4]: the IC50 in series [1] (setting [4]) amounted to 114 ± 31.8 µM; in series [1] (setting [5]) it was 30 µg/mL; in series [1] (MDA-MB-231, MTT assay) it was 30.2 ± 8.4 µg/mL. In series [2], this compound had a mortality at 24 h of 42.38 ± 0.19%.
As for `CC1=C(O)C(=O)C(C(C)CCC2OC(C)(C)OC2(C)C)=CC1=O` (centres unmarked) [Compound 6], the IC50 in series [1] (setting [4]) is 8.44 ± 1.46 µM; in series [1] (setting [5]), 2.72 ± 0.47 µg/mL. This compound returned a mortality at 24 h in series [2] of 18.4 ± 1.54%.
With `CC1=CC(=O)C(C(C)CCC2OC(C)(C)OC2(C)C)=C(O)C1=O` (centres unmarked) [Compound 5], the IC50 in series [1] (setting [4]) came out at 74.9 ± 14.8 µM; in series [1] (setting [5]), 24.1 ± 4.75 µg/mL. In series [2], this compound gave a mortality at 24 h of 90.7 ± 0.58%.
As for `CC(=O)OC(C)(C)C(O)CCC(C)C1=C(O)C(=O)C(C)=CC1=O` (centres unmarked) [Compound 7], the IC50 in series [1] (setting [4]) was determined as 103 ± 5.96 µM; in series [1] (setting [5]) it was 33.2 ± 1.93 µg/mL. This compound came in with a mortality at 24 h in series [2] of 96.8 ± 2.76%. Also, in series [3], the “solubility in the cytotoxic/IC50 testing (in words)” value is “did not show great solubility”.
In the case of `CC(C)=CCC[C@@H](C)C1=CC(=O)C(C)=C(O)C1=O` [Compound 2, isoperezone, reference compound], the IC50 worked out at 19.31 ± 0.05 µM in series [1] (setting [4]) and 4.79 ± 0.01 µg/mL in series [1] (setting [5]).
In the case of `CC1=CC(=O)c2c(O)cccc2C1=O` [plumbagin], the “binding energy of complex with caspase-3” value with caspase-3 was -10.13 kcal/mol.
`CC1=CC(=O)C(C(C)CCC2OC2(C)C)=C(O)C1=O` (centres unmarked) [Compound 3]: the results for the IC50 in series [1] (setting [4]) and in series [1] (setting [5]) were 9.62 ± 0.76 µM and 2.54 ± 0.2 µg/mL, respectively. Besides, the mortality at 24 h in series [2] stood at 19.5 ± 3.27%.
